The results in this text go back to patent publication US20230117470A1, “SUBSTITUTED PYRAZOLE COMPOUNDS AS TOLL RECEPTOR INHIBITORS” (BRISTOL-MYERS SQUIBB COMPANY, priority 2019, published 2023).

One may read the IC50 as the concentration at which inhibition is half-maximal. A high value points to weaker potency in that assay.

What all share (format): cell-based
Assay [1] deals with T1, human TLR9 (Homo sapiens, UniProt Q9NR96).
T1 construct: host or cells: HEK-Blue cells
T1 sequence (Q9NR96 26-1032): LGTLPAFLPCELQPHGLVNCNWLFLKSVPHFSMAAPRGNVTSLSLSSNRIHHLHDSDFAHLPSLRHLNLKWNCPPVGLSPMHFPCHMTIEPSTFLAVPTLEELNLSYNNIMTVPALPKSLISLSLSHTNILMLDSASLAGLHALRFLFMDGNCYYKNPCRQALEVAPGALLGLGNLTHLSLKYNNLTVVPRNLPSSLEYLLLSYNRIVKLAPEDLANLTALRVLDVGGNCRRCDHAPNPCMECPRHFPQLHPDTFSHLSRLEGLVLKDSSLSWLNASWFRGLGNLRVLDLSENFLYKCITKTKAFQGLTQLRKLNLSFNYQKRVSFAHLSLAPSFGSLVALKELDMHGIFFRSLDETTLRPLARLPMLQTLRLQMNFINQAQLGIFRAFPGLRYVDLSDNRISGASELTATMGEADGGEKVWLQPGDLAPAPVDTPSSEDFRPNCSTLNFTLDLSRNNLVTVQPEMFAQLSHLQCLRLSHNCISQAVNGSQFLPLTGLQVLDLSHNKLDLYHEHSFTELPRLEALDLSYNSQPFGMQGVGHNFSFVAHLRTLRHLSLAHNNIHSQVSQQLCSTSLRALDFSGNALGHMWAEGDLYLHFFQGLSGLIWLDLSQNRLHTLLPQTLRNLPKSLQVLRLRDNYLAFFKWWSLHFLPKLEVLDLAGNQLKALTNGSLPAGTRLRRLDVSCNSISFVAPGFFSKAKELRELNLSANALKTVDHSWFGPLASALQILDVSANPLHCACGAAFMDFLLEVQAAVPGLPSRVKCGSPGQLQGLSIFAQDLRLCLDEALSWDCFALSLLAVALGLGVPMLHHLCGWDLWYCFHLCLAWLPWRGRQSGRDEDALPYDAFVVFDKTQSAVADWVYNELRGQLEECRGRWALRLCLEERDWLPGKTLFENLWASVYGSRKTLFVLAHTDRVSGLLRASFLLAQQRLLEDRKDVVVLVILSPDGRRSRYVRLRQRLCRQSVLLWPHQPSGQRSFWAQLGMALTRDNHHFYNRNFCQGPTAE
Briefly: TLR9 inhibition reporter assay (HEK-Blue cells, SEAP reporter, ODN2006 stimulation). The note with it: HEK-Blue cells overexpressing human TLR9, SEAP reporter, ODN2006 5 nM. A digest of the protocol:
(§1)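 Percent inhibition of agonist-induced SEAP, set between agonist+DMSO wells and known-inhibitor wells, after 22 h at 37° C. Compounds (0.05 nM-50 μM final) were added 30 min at room temperature before ligand: gardiquimod 7.5 μM for TLR7, R848 15.9 μM for TLR8, ODN2006 5 nM for TLR9. Human receptors overexpressed in HEK-Blue reporter cells.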
For orientation: A reporter such as luciferase makes a cellular process visible.

Assay [2] addresses T2, human TLR7 (Homo sapiens, UniProt Q9NYK1).
T2 construct: host or cells: HEK-Blue cells
T2 sequence (Q9NYK1 27-1049): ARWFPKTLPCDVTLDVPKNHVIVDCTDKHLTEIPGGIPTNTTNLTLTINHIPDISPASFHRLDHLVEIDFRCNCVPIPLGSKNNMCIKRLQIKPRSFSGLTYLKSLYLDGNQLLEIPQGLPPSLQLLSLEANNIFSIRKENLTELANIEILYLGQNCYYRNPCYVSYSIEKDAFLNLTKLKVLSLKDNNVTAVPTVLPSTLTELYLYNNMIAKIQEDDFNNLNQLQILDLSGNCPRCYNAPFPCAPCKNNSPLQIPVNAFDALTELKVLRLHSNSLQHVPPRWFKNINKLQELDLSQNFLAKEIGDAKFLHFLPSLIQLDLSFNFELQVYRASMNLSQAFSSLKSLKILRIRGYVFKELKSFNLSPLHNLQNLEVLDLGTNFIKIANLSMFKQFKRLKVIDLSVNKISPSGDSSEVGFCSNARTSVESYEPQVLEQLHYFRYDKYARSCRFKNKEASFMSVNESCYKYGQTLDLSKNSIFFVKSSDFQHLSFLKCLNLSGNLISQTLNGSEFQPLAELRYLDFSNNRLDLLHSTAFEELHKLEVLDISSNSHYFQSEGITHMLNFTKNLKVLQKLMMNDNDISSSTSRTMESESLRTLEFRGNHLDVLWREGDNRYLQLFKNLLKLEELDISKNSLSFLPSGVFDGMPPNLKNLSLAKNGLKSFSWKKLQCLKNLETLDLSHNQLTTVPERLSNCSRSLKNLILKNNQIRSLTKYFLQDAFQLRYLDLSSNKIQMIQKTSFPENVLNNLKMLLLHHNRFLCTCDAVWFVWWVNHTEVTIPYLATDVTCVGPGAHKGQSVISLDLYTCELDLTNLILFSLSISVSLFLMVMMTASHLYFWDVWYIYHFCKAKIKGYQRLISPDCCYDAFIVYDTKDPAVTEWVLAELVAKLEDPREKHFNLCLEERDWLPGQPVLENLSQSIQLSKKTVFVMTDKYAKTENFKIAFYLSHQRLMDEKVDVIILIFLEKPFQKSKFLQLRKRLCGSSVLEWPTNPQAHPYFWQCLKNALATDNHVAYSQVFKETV
The experiment in a line: TLR7 inhibition reporter assay (HEK-Blue cells, SEAP reporter, gardiquimod stimulation). The conditions noted are these: HEK-Blue cells overexpressing human TLR7, SEAP reporter, gardiquimod 7.5 μM. A digest of the protocol: as §1

Assay [3] has as its target T3, human TLR8 (Homo sapiens, UniProt Q9NR97).
T3 construct: host or cells: HEK-Blue cells
T3 sequence (Q9NR97 27-1041): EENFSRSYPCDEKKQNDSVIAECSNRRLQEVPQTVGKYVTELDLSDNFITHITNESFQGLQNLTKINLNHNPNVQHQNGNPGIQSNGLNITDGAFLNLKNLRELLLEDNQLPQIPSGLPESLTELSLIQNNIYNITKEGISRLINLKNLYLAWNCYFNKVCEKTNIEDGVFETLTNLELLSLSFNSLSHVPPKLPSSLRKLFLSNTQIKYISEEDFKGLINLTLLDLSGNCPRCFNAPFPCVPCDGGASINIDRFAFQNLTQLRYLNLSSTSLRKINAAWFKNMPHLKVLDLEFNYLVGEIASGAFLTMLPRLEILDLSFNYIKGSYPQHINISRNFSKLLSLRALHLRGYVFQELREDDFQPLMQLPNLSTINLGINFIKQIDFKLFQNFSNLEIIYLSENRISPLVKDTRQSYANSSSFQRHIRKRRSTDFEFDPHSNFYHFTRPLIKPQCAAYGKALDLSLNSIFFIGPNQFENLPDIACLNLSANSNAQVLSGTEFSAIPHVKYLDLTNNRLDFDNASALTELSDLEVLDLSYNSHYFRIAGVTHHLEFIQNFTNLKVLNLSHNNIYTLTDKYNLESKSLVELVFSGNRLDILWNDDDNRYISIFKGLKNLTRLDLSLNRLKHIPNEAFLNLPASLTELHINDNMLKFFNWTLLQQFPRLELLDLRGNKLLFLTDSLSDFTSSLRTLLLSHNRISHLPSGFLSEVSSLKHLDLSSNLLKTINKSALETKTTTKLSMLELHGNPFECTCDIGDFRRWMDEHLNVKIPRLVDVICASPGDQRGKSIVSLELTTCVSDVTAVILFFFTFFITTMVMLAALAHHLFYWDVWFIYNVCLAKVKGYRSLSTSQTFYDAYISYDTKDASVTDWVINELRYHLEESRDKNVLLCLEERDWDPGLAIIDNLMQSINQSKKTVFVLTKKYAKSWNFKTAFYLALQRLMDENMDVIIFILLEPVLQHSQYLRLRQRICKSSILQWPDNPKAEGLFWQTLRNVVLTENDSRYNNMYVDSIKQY
Briefly: TLR8 inhibition reporter assay (HEK-Blue cells, SEAP reporter, R848 stimulation). The conditions noted are these: HEK-Blue cells overexpressing human TLR8, SEAP reporter, R848 15.9 μM. A digest of the protocol: as §1

With `Cc1cc(-c2[nH]nc(C(=O)N3CCNCC3)c2C(C)C)cn2ncnc12` [Example 57], the IC50 was 23.1 µM in assay [1], 0.00424 µM in assay [2] and 0.00134 µM in assay [3].
Turning to `Cc1cc(-c2[nH]nc(C(=O)NC3CN(Cc4ncn(C)n4)C3)c2C(C)C)cn2ncnc12` [Example 159], the IC50 worked out at 6.87 µM in assay [1], 0.00879 µM in assay [2] and 0.00478 µM in assay [3].
As to `Cc1cc(-c2[nH]nc(-c3nc4c(s3)CN(CC(=O)N(C)C)CC4)c2C(C)C)cn2ncnc12` [Example 275], the IC50 in assay [1] is greater than 50 µM; in assay [2], 0.413 µM; in assay [3] it was 0.515 µM.
Consider `Cc1cc(-c2[nH]nc(C(=O)NC3CCN(CCC(F)(F)F)CC3)c2C(C)C)cn2ncnc12` [Example 169], for which the IC50 stood at 9.81 µM in assay [1], 0.00417 µM in assay [2] and 0.017 µM in assay [3].
The corresponding values for `Cc1cc(-c2[nH]nc(-c3ccc(N(C)C)nc3)c2C(C)C)cn2ncnc12` [Example 237] are 5.49 µM, 0.00487 µM and 0.00029 µM.
For `COc1c(C)c(-c2[nH]nc(-c3ccc(C4CCN(CC5CCOCC5)CC4)cn3)c2C(C)C)cn2ncnc12` [Example 388], in that order: 16.1 µM, 0.0224 µM and 0.0374 µM.
The corresponding values for `Cc1cc(-c2[nH]nc(C3CCC(N4CCOCC4)CC3)c2C(C)C)cn2ncnc12` (single isomer, unassigned) [Example 290] are 22.1 µM, 0.00856 µM and 0.00109 µM.
In the case of `Cc1c(C(=O)NC2CCN(C)CC2)n[nH]c1-c1cc(C)c2ncnn2c1` [compound 180], the IC50 in assay [1] amounted to 5.28 µM; in assay [2] it was 0.00354 µM; in assay [3] it was 0.0037 µM.
For `CCc1c(C(=O)NC2CCN(C(C)C)CC2)n[nH]c1-c1cc(C)c2ncnn2c1` [compound 182], in that order: 13.5 µM, 0.00174 µM and 0.00076 µM.
The corresponding values for `Cc1cc(-c2[nH]nc(-c3cccc(N)c3)c2C(C)C)cn2ncnc12` [Example 232] are greater than 50 µM, 0.00419 µM and 0.00787 µM.
For `CC(C)c1c(C(=O)NC2CCN(C)CC2)n[nH]c1-c1cn(C)c2ncccc12` [Example 41], in that order: 8.43 µM, 0.00119 µM and 0.00266 µM.
For the molecule `CNC(=O)CN1CCC(c2cnc(-c3n[nH]c(-c4cc(OC)c5ncnn5c4)c3C(C)C)cn2)CC1` [Example 400], the IC50 in assay [1] is 9.25 µM; in assay [2] it was 0.0135 µM; in assay [3] it was 0.0159 µM.
For `Cc1cc(-c2[nH]nc(C(=O)NC3CCN(C4CCOCC4)CC3)c2CC(F)(F)F)cn2ncnc12` [Example 201], in that order: 9.25 µM, 0.00666 µM and 0.00421 µM.
The corresponding values for `CNCc1n[nH]c(-c2cc(C)c3ncnn3c2)c1C(C)C` [Example 185] are 23 µM, 0.00742 µM and 0.00338 µM.
For `Cc1cc(-c2[nH]nc(C3CCN(C(=O)CCNC(C)C)CC3)c2C(C)C)cn2ncnc12` [compound 210], in that order: 23.8 µM, 0.0018 µM and 0.00124 µM.
As for `COc1cc(-c2[nH]nc(-c3nc4c(s3)CN(C(C)C)CC4)c2C(C)C)cn2ncnc12` [Example 259], the IC50 in assay [1] was greater than 50 µM; in assay [2] it was 0.0235 µM; in assay [3] it was 0.0138 µM.
With `COc1cc(-c2[nH]nc(-c3ccc(C4CN(C5CCOCC5)C4)cc3)c2C(C)C)cn2ncnc12` [Example 333], the IC50 in assay [1] amounted to 37.4 µM; in assay [2], 0.0349 µM; in assay [3], 0.00219 µM.
The corresponding values for `Cc1cc(-c2[nH]nc(C(=O)N[C@@H]3CCCNC3)c2C(C)C)cn2ncnc12` [Example 52] are 18 µM, 0.0029 µM and 0.00422 µM.
